For 80 compounds, RP-LC retention time results are on record in the METLIN SMRT retention time set (Domingo-Almenara et al. 2019).

This series in a line: gradient 5% acetonitrile 3 min, to 50% in 2 min, to 85% in 15 min, held 3 min, 100 µL/min. Conditions: column: Zorbax Extend-C18 2.1 x 50 mm; eluents: water / acetonitrile, 0.1% formic acid. Put shortly: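 Retention time was recorded from adduct peaks, which were picked computationally and each inspected manually. Pure standards ran in mixtures of ~100 molecules on HPLC coupled to a quadrupole time-of-flight mass spectrometer, in positive and negative ionization mode, through a Zorbax Extend-C18 column (2.1 × 50 mm, 1.8 μm) at 100 μL/min. Eluents were water and acetonitrile, each with 0.1% formic acid.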
`Cc1cccn2cc(-c3cccc(NS(=O)(=O)c4ccc(Cl)cc4)c3)nc12` gave an RP-LC retention time of 686 s. In turn, `Cc1ccc(NC(=O)N2CCC(C(C)C(=O)Nc3cc(C)cc(C)c3)CC2)cc1` (stereo not given) gave an RP-LC retention time of 970 s. As to `COCCN1C(=O)CCc2cc(NS(=O)(=O)c3cc(C)c(C)cc3C)ccc21`, the RP-LC retention time was found to be 833 s. The value for `O=C(COc1ccccc1)Nc1cnc(N2CCCCCC2)nc1` was 941 s; that for `Cc1ccc(OCC(=O)Nc2nnc(SCc3nnc(-c4ccccc4C)o3)s2)c(C)c1` was 1100 s. Regarding `COc1ccc(-c2ncc3c(n2)CCN(C(=O)Nc2ccc(C)c(F)c2)C3)cc1`, the RP-LC retention time amounted to 996 s.

Take `COc1ccc(C(=O)N2CCC3(C2)C(=O)Nc2ccc(OC)cc23)cc1` (stereo not given): the RP-LC retention time was 683 s. In turn, `FC(F)(F)c1cccc(-c2ccc(CNCC3CCNCC3)o2)c1` returned an RP-LC retention time of 580 s. `Cc1ccc(N2CCC(NC(=O)c3ccc(F)c(F)c3)C2=O)cc1C` (stereo not given) registered an RP-LC retention time of 918 s.

Regarding `COc1ccc(NC(=O)c2noc3c2CCCCC3)c(OC)c1`, the RP-LC retention time was determined as 1080 s. In turn, `CC1CCN(c2nc(=O)n(CC(=O)Nc3ccc4c(c3)OCCO4)c3ccccc23)CC1` displayed an RP-LC retention time of 812 s.

For `Cc1cc(N2CCN([C@@H]3CN[C@H](C(=O)N4CCSC4)C3)CC2)n(-c2ccccc2)n1`, the RP-LC retention time stood at 653 s. For the compound `COc1cc(OC)cc(-c2noc(CCn3nc(-c4ccc5c(c4)OCO5)ccc3=O)n2)c1`, the RP-LC retention time amounted to 908 s. As to `Cc1ccc(CS(=O)(=O)N2CCC(CN3CCCC(C)C3)CC2)cc1` (stereo not given), the RP-LC retention time was found to be 688 s. The figure for `Cc1cc(OCC(=O)Nc2cccc(C)c2C)nc(N2CCN(c3ccccc3)CC2)n1` is 885 s; for `O=C(Cn1cnc(-c2nc(-c3ccccc3)cs2)c1)Nc1ccc(F)cc1F` it is 744 s; for `O=c1c2nc(-c3ccc4c(c3)OCO4)cn2ccn1-c1cccc(F)c1` it is 785 s. `CCCNC(=O)C1CCCN(c2nc3ncn(CC(=O)NCCC4=CCCCC4)c(=O)c3s2)C1` (stereo not given) registered an RP-LC retention time of 732 s. The figure for `Cc1cc(C(=O)OCC(=O)c2cccc([N+](=O)[O-])c2)c2ccccc2n1` is 804 s.

For the compound `CC(=O)c1cccc(NC(=O)c2csc3c2CCC(C)C3)c1` (stereo not given), the RP-LC retention time stood at 997 s. The compound `CCOC(=O)c1cc(S(=O)(=O)N2CCCC2C(=O)Nc2cccc(SC)c2)cn1C` (stereo not given) yielded an RP-LC retention time of 995 s. The figure for `COc1ccc(CC(=O)Nc2ccc3c(c2)Sc2ncccc2C(=O)N3C)c(Cl)c1` is 804 s; for `COCCOC(=O)c1c(C)oc2ccc(OC(=O)C3CC3)cc12` it is 941 s.

Consider `COC(=O)c1cc(S(=O)(=O)N2CCN(c3ccccn3)CC2)c(C)n1C`, for which the RP-LC retention time came to 630 s. The value for `CCc1ccc(OCc2nc(CCN(C)C(=O)c3cccs3)no2)cc1` was 924 s; that for `COc1ccc(NC(=O)C2CCN(S(=O)(=O)c3ccc4c(c3)sc(=O)n4C)CC2)c(OC)c1` was 840 s. The compound `Cc1cc(NC(=O)CN2CCc3ccccc3C2C(=O)N2CCCCC2)ccc1F` (stereo not given) registered an RP-LC retention time of 964 s. With `CCOC(=O)CNC(=O)N1CCc2cc(-c3ccc(C(=O)N4CCOCC4)cc3)ccc21`, the RP-LC retention time is 723 s. In the case of `Cc1nc2scc(C)n2c(=O)c1NC(=O)CCSc1ccccc1`, the RP-LC retention time turned out to be 675 s.

Take `Cc1ccccc1-c1noc(Cn2nc(-c3ccccc3F)ccc2=O)n1`: the RP-LC retention time turned out to be 986 s. In the case of `c1ccc2c(c1)nnn1c3cnccc3nc21`, the RP-LC retention time is 606 s.

As for `Cc1ccc(C)c(CNC(=O)CCc2conc2-c2ccc(F)cc2)c1`, the RP-LC retention time is 1010 s. As for `O=C1CCC2(CNC(=O)c3n[nH]c(=O)c4ccccc34)CCCC=C2N1` (stereo not given), the RP-LC retention time was 634 s. `Cc1ccc(CNC(=O)c2ccc(-c3ccsc3)nc2)o1` gave an RP-LC retention time of 824 s. The figure for `CCC(CC)C(=O)Nc1nc(-c2ccc3c(c2)N(C)C(=O)CO3)c(C)s1` is 962 s; for `COc1cc(Cl)c(C)cc1NC(=O)Cc1nnc(-c2ccc3ncccc3c2)o1` it is 848 s. `COC(=O)c1cc(OCC(=O)Nc2ccc(F)cc2F)c2cc(OC)ccc2n1` gave an RP-LC retention time of 822 s. Consider `CCOc1ccc(CC(=O)N2CCCn3nc(-c4ccc(Cl)cc4)cc3C2)cc1`, for which the RP-LC retention time was 1020 s. In turn, `O=C(Nc1cnn(-c2ncc(N3CCCCC3)cn2)c1)c1ccccn1` showed an RP-LC retention time of 814 s.

`COc1ccc(NC(=O)C2CCc3sc(C(=O)N4CCCC4)cc3C2)c(OC)c1` (stereo not given) gave an RP-LC retention time of 756 s. `Cc1nn(CC(=O)NCCC(C)C)c(=O)c2c(-n3cccc3)n(-c3ccc(Cl)cc3)nc12` had an RP-LC retention time of 1030 s.

Consider `COC(=O)c1c(C)[nH]c(C(=O)N2CCCC(C(=O)N3CCN(c4ccc(OC)cc4)CC3)C2)c1C` (stereo not given), for which the RP-LC retention time is 707 s. As to `Cc1cccc(NC(=O)Cn2c(C)nc(C)c(C)c2=O)c1C`, the RP-LC retention time worked out at 641 s. `Cc1cccc(C)c1Nc1c(-c2ccccc2O)nc2ncccn12` came in with an RP-LC retention time of 705 s. The compound `O=C(NCCC1=CCCCC1)C1CCN(Cc2cc3ccccc3n2Cc2ccccc2)CC1` displayed an RP-LC retention time of 880 s. Compound `Cc1cc(C)cc(-c2nc(-c3ccc4c(c3)oc(=O)n4C)no2)c1` yielded an RP-LC retention time of 1060 s. The compound `COc1ccccc1-c1nnc(-c2ccc(Cl)c(S(=O)(=O)N3CCC(C)CC3)c2)o1` returned an RP-LC retention time of 1190 s. `O=C(Cn1cc(S(=O)(=O)N2CCCC2)ccc1=O)N1CCCc2ccccc21` yielded an RP-LC retention time of 782 s. `CC1CCN(c2ncc3c(n2)CCC(C(=O)NCc2ccc(OC(C)C)cc2)C3)CC1` (stereo not given) came in with an RP-LC retention time of 908 s. The value for `CCn1ncn2cc(S(=O)(=O)Nc3ccc(C)cc3C)cc2c1=O` was 937 s; that for `CCC(=O)N1CCc2cc(N3CC(C(=O)NC(C)CC)CC3=O)ccc21` (stereo not given) was 669 s; that for `O=S(=O)(c1ccccc1Br)N1CCc2nc(-c3ccc(F)cc3)ncc2C1` was 1130 s. Regarding `CC(C)(O)[C@@H]1[C@@H]2OC(=O)[C@H]1[C@]1(O)C[C@H]3O[C@]34C(=O)O[C@H]2[C@]14C`, the RP-LC retention time was 709 s. Turning to `CCOC(=O)c1sc(NC(=O)Cn2nc3c(cc2=O)CCCCC3)nc1C`, the RP-LC retention time is 853 s. Compound `COc1ccc(NC(=O)Cn2nc3c(N4CCSCC4)nccn3c2=O)cc1OC` registered an RP-LC retention time of 720 s. Compound `CN(C)c1nc(Nc2ccc3c(c2)OCO3)c2cnn(-c3ccccc3)c2n1` yielded an RP-LC retention time of 1220 s. The value for `CCSc1nc2ccc(NS(=O)(=O)c3ccc(F)c(Cl)c3)cc2s1` was 1110 s. Compound `O=C(NC1CCN(c2cc(-c3cccs3)[nH]n2)C1)c1ccc(F)cc1` (stereo not given) registered an RP-LC retention time of 726 s. As to `O=C(c1ccsc1)N1CC(c2noc(C3CCCN3CC3CC3)n2)C1` (stereo not given), the RP-LC retention time is 590 s. In turn, `CC1(C)CC(=O)C2=C(C1)Nc1ccccc1N(CC(=O)NC1CCCC1)C2c1ccc(F)cc1` (stereo not given) displayed an RP-LC retention time of 863 s. The figure for `CCCN(CCc1cccs1)C1CCc2c(O)cccc2C1` (stereo not given) is 757 s. `CCOC(=O)c1nc(Nc2ccc(C(=O)OCC(C)C)cc2)c2ccccc2n1`: the RP-LC retention time was 1090 s. As for `COCCN1C(=O)Cc2ccccc2C1C(=O)NCc1ccccc1Cl` (stereo not given), the RP-LC retention time amounted to 775 s.

Consider `Cc1cc(C)c2sc(NC(=O)C3=COCCO3)nc2c1`, for which the RP-LC retention time was found to be 895 s. In turn, `CC(C)C(=O)NCC12CCCC=C1N(C)C(=O)CC2` (stereo not given) returned an RP-LC retention time of 660 s.

In the case of `CCc1c(C(=O)O)nnn1-c1cc(OC)cc(OC)c1`, the RP-LC retention time was determined as 730 s. The value for `COCCNC(=O)c1cn2cccc(C)c2n1` was 561 s. On to `Cc1ccc(NC(=O)C2CCN(S(=O)(=O)c3cn(C(C)C)cn3)CC2)cc1F`, for which the RP-LC retention time came to 823 s. The compound `COCCc1noc(C2Cc3ccccc3N2C(=O)Nc2cc(OC)cc(OC)c2)n1` (stereo not given) yielded an RP-LC retention time of 929 s.

Compound `CCNC(=O)N1CCC(OC2CCN(Cc3ccccc3)CC2)CC1` came in with an RP-LC retention time of 570 s. The compound `Cc1ccc(-c2nc3cnccn3c2Nc2cccc(C(=O)O)c2)cc1` gave an RP-LC retention time of 711 s. `CCOc1ccccc1N1CCN(C(=O)CN2CCN(Cc3ccc(F)cc3)C2=O)CC1` returned an RP-LC retention time of 833 s. The figure for `COc1ccc(NC(=O)c2nc(C)oc2C)cc1OC` is 750 s; for `COc1ccc(CNC(=O)C2CCCN(c3nnc4cccc(C)n34)C2)c(OC)c1` (stereo not given) it is 688 s; for `COc1cc(Nc2c(C(=O)N3CCCC3)cnc3nc(C)ccc23)cc(OC)c1OC` it is 592 s. The value for `Cc1cnc(CC2CCN(C(=O)C(C)C)C2)n1C1CC1` (stereo not given) was 557 s; that for `CCc1cc2c(cc1N1CCC(N3CCOCC3)CC1)C(C)(C)c1[nH]c3cc(C#N)ccc3c1C2=O` was 740 s. For the compound `Fc1ccc(C2Cn3nnc(-c4nc(-c5ccccn5)no4)c3CO2)cc1` (stereo not given), the RP-LC retention time worked out at 854 s. `Cc1nc(-c2cn(-c3cccc(Cl)c3)nn2)no1` displayed an RP-LC retention time of 858 s. Turning to `Cc1cc2nc(C(F)(F)F)c(=O)n(C(C)C(=O)NCCCN3CCCC3)c2cc1C` (stereo not given), the RP-LC retention time came out at 714 s.
